Assay results taken from patent publication US7091238B1, “Thienylhydrazon with digitalis-like properties (positive inotropic effects)” (University of Maryland, priority 1999, dated 2006).
“Also recorded” adds a separate entry of the source.

Tests used:
[1] = Plasma concentration kinetics; type: in vivo
Description: The plasma concentration of the drug reached a maximum at that time and afterwards tapered off to control levels within 2 hours.

rat thoracic aorta = assay: Relaxation of noradrenaline-precontracted thoracic aortic rings
Text: Aortic rings: Male wistar rats (300–350 g) were anaesthetized with ether and killed by cervical dislocation. The thoracic aorta was quickly removed, placed in physiological solution, cleaned of fat and connective tissue, and cut into 3-mm rings. In some experiments endothelium was mechanically removed by gently rubbing inverted rings on a cotton surface moistened with physiological solution. The rings were fixed in an organ bath chamber filled with physiological solution (composition (mM): NaCl 122, KCl 5, NaHCO3 15, glucose 11.5, MgCl2 1.25, CaCl2 1.25 and KH2PO4 1.25) aerated with O2/CO2, maintained at 37° C., and left to equilibrate for 60 min during which the physiological solution was changed twice. All experiments were carried out under an initial tension of 20 mN, and the developed active tension was measured isometrically using a Grass Transducer (FT03). Data were acquired and analyzed by Chart 3.4/s software (MacLab, USA). The contraction was induced by 1 μM Noradrenaline (NOR) and when it reached a plateau the relaxant drugs (or solvent—time-matched control) were added. The rings contracted with 1 μM NOR that relaxed 40–50% in response to 1 μM acetylcholine were considered with intact endothelium. Drugs: LASSBio-294 and ODQ were dissolved in 100% dimethyl sulphoxide (DMSO). Noradrenalin, 1-NAME, IBMX, methylene blue, acetylcholine and indomethacin were purchased from SIGMA (USA). All drugs but indomethacin were dissolved in water in the day of the experiment. Indomethacin was dissolved in 5% sodium carbonate. Statistics: Data are presented as mean ±sem. Statistical analysis was performed using the Primer software. Vasodilator responses are expressed in percentage of the maximal contraction induced by 1 μM NOR. Differences were considered significant at p<0.05 (Student's t test).

tissues and organs = assay: Histopathological study of tissues and organs after daily injection; type: in vivo, rat; conditions: 2 or 10 mg/kg injected daily for more than 14 days
[2] = system: sarcoplasmic reticulum of cardiac muscle fibers; assay: Caffeine-induced contracture of saponin-treated left ventricular fibers (Ca2+ uptake/storage by sarcoplasmic reticulum); set-up: species or system Wistar rats
Description: FIG. 7. Bundles of left ventricular fibers were treated with saponin and exposed to 0.5 mM CaCl2 to enable maximal tension development (Po). The contracture initiated by caffeine (20 mM) was measured after treatment of the sarcoplasmic reticulum (SR) with a solution of pCa 6.6 in the absence or presence of LASSBio-294 (100 μM0 for 0.5, 1.0 and 5.0 min. N=6. Calibration: Vertical, 10 mm=20 mg load; Horizontal, 10 mm=40 sec.
FIG. 8. Contracture induced by caffeine in relation to loading of the sarcoplasmic reticulum with a solution of pCa 6.6.
FIG. 9. The contractual responses were obtained during exposure to 20 mM caffeine after loading of the sarcoplasmic reticulum with pCA 6.6 in the absence and the presence of LASSBio-294.
FIG. 11. Concentration-response relationship for contracture induced by caffeine in the presence of 100 μM LASSBio-294. *p<0.01.
b. Graphic representation of the tests in FIG. 7 showing the effect of LASSBio-294 on uptake of Ca^2+ by sarcoplasmic reticulum in isolated cardiac muscle with sarcolemma removed. FIG. 9 illustrates the effect of LASSBio-294 on tension in isolated cardiac muscle with sarcolemma removed was measured. Measurement of contraction induced by caffeine, as a function concentration of LASSBio-294 in bathing solution. FIG. 9 is a graphic representation of the effect of increasing concentrations of LASSBio-294 between 0 and 20 μM. […] FIG. 12 illustrates the effect of LASSBio-294 on sensitivity of cardiac fibers to calcium. Calcium levels can induce isometric twitch. […] FIG. 13 provides a graphic representation of data in FIG. 12. General Method
Bundles of left ventricular muscle (130 μm diameter and 1–2 mm in thickness) from Wistar rats were dissected out and mounted for measurement of isometric tension. The muscles were treated with saponin solution (0.5%) for 5 minutes to […] the permeability of the sarcolemma. The membranes of the SR were then […] with Triton X-100 (1% v/v) with the objective of investigating the effects of LASSBio-294 on the sensitivity of the contractile system Ca^2+. […] Caffeine is used to elicit contraction in muscle. Comparison of caffeine alone to caffeine in the presence of LASSBio-294 was measured.

isolated hearts = assay: Isometric (twitch) tension in isolated hearts under pre-load; set-up: species or system rat; conditions: 50 μM in bathing solution; pre-load of 1 g; vs control and wash
Description: FIG. 5. Recordings of twitch tension in isolated hearts. Control (top), LASSBio-294 (middle) and wash (bottom).
a Recordings of electrocardiogram (ECG) of isolated rat heart are shown in FIG. 4 which compare control, LASSBio-294 treatment, 10 uM, 50 μM and 100 μM and post-treatment wash. […] FIG. 5 illustrates a test of change in isometric tension induced by LASSBio-294 in isolated hearts under preload. Concentration of LASSBio-294 in the bathing solution is 50 μM, which is half of the highest concentration tested in the ECG tests described in FIG. 4. Hearts were treated under a pre-load of 1 g; control was compared to LASSBio-294 and wash. […] This effect was lost in the wash out period. The pre-load tension test is considered to be an animal model of congestive heart disease. Comparing the effect of drugs with this test is predictive of therapeutic effect of treatment in human congestive heart disease. General Method
Hearts were quickly removed and placed in an aorta retrograde perfusion system for measurement of ECG. Increasing concentrations of LASSBio-294 were added to the bathing solution. The system equilibrated for 5 min. before measurement of isometric tension after each addition.

phosphodiesterase = assay: Phosphodiesterase direct effect; type: biochemical
Text: Determination of phosphodiesterase direct effect was also negative.

For `O=C(NN=Cc1cccs1)c1ccc2c(c1)OCO2` [LASSBio-294, 3,4-methylenedioxybenzoyl-2-thienylhydrazone], the “retention time (RT); time of maximum plasma concentration” value [1] was 14.59 min, the “time for plasma concentration to taper off to control levels” value [1] was at most 2 h and the “vasodilator activity (conclusion)” value (rat thoracic aorta) was “has vasodilator activity”. The “relaxation of aortic rings with intact endothelium” value (rat thoracic aorta; 1 μM noradrenaline precontraction, 100 μM) was “relaxed noradrenaline-precontracted aortic rings; also recorded: relaxed intact aortic rings in a concentration-dependent manner”, the “relaxation after addition of methylene blue” value (rat thoracic aorta; 30 μM methylene blue added after compound 100 μM) was “fully reversed” and the “relaxation after pre-treatment with methylene blue” value (rat thoracic aorta; 30 μM methylene blue added before compound) was “not able to induce relaxation; also recorded: prevented; also recorded: abolishes”. The “relaxation after 1-NAME treatment” value (rat thoracic aorta; 1-NAME 100 μM during 30 min) was “no difference in the relaxation”, the “vasorelaxation in presence of ODQ” value (rat thoracic aorta; ODQ 10 μM, compound 100 μM, preliminary assays) was “prevented” and the “relaxation in endothelium-denuded aorta” value (rat thoracic aorta; endothelium removed) was “abolished”. The “relaxation after 1-NAME plus indomethacin” value (rat thoracic aorta; inhibition of both NOS and cycloxigenase pathways) was “same level of relaxation observed in the presence of only 1-NAME; also recorded: the same as observed in the presence of 1-NAME alone”, the “relaxation compared with acetylcholine and IBMX” value (rat thoracic aorta; intact rings, 1 μM noradrenaline) was “more slowly; also recorded: less pronounced” and the “histopathological changes in tissues and organs” value (tissues and organs) was “unaffected; also recorded: no pathological changes; also recorded: no significant histopathological changes”. For the same molecule, the “uptake of Ca^2+ by the sarcoplasmic reticulum” value ([2]; 100 μM, loading at pCa 6.6, 20 mM caffeine contracture) was “increases uptake of Ca^2+”, the “response to caffeine as a function of compound concentration” value ([2]; 20 mM caffeine, concentrations between 0 and 20 μM) was “increases until 10 μM” and the “contraction (isometric tension) elicited by caffeine” value ([2]; caffeine 0.05 to 10 mM, 100 μM compound vs control) was “increased over control at all concentrations”. For the same molecule, the “storage of Ca^2+ by the sarcoplasmic reticulum” value ([2]; cardiac muscle fibers) was “increases the storage of Ca^2+”, the isometric tension (isolated hearts) was “increase in isometric tension compared to control” and the phosphodiesterase direct effect (phosphodiesterase) was “negative”.
